Reference: patent US20130288323A1, “MICROBIAL PRODUCTION OF POLYHYDROXYALKANOATES” (UNIVERSITY OF MANITOBA, priority 2010, published 2013)

Tests used:
P. putida LS46 [1] = assay: Growth of P. putida LS46 in the presence of salicylic acid; assay type: cell-based, Pseudomonas putida; conditions: salicylic acid at 10 mM
Procedure: (§1) Salicylic acid has been used as an inhibitor of β-oxidation in plant, animal, and bacterial cells. […] Salicylic acid at 10 mM inhibited P. putida LS46 growth. Therefore, 1-5 mM concentration of salicylic acid was studied for its effect on mcl-PHA production by P. putida LS46. To separate volumes of Ramsey's liquid medium supplemented with 2% of glucose were added: (i) no salicylic acid (control), (ii) 1.0 nM salicylic acid, (iii) 2.5 mM salicylic acid, or (iv) 5.0 salicylic acid. After sterilization, the liquid media were dispensed into flasks which were then each inoculated with 1% inoculum of P. putida LS46, and then cultured for 48 h. Cultures were then harvested and their cdw, the percentage accumulation of mcl-PHAs in the cells, and the mol % monomer composition of C8 […] the mcl-PHAs were determined. […] 3-hydroxyoctanoate decreased, while 3-hydroxydecanoate increased, in the presence of 2.5 mM and 5.0 mM salicylic acid, compared with the control (Table 6).

P. putida LS46 [2] = assay: Effects of salicylic acid on production of mcl-PHAs by P. putida LS46; assay type: cell-based, Pseudomonas putida; conditions: Ramsey's medium + 2% glucose, 48 h
Procedure: Six of the microbial isolates (i.e., LS1, LS5, LS33, LS34, LS39, LS46) that produced epifluorescence under UV illumination were separately cultured for 72 h in: (i) 200 mL LB broth, and (ii) 200 mL LB broth supplemented with 3 g/L glucose. The microbial cells were centrifuged at 4500 g for 20 min in a Sorvall RC6-Plus centrifuge. The microbial pellets were washed twice in 0.85% NaCl and then dried at 80° C. for 48 h. The intracellular PHA contents and PHA composition were determined by GC-MS following the method taught by Braunegg et al. (1978, Eur. J. Appl. Microbiol. Biotechnol. 6:29-37). Dried cells (20 mg) were mixed with 1 mL chloroform and 1 mL methanol containing 15% sulphuric acid. Benzoic acid (1 mg/mL) was used as an internal standard. The suspensions were refluxed at 100° C. for 4 h, after which, 0.5 ml of water were added to each suspension. The mixtures were centrifuged at 4000×g. The lower chloroform layers were separated and analyzed using a GC-MS fitted FID detector and aHP-5 capillary column. The initial oven temperature was set at 75° C. for 6 min and then was increased to 265° C. with a ramping rate of 20° C./min.
as §1, with “To separate volumes of Ramsey's liquid medium supplemented with 2% of glucose were added: (i) no salicylic acid (control), (ii) 1.0 nM salicylic acid, (iii) 2.5 mM salicylic acid, or (iv) 5.0 salicylic acid.” left out

P. putida LS46 [3] = assay: as above; assay type: cell-based, Pseudomonas putida; conditions: 1.0 mM salicylic acid; Ramsey's medium + 2% glucose; 48 h
P. aeruginosa = conditions: salicylic acid between 5 mM and 60 mM in growth medium; cited from earlier work

O=C(O)c1ccccc1O [Salicylic acid, salicylic acid]
growth of P. putida LS46 (P. putida LS46 [1]): inhibited | 3-hydroxyalkanoate monomer content C10 (P. putida LS46 [2]; 1.0 mM salicylic acid): 47.90 mol % | 3-hydroxyalkanoate monomer content C12 (P. putida LS46 [2]; 1.0 mM salicylic acid): 1.91 mol % | CDW (P. putida LS46 [2]; 1.0 mM salicylic acid): 3.08 g/L | 3-hydroxyalkanoate monomer content C6 (P. putida LS46 [2]; 2.5 mM salicylic acid): 3.39 mol % | 3-hydroxyalkanoate monomer content C8 (P. putida LS46 [2]; 2.5 mM salicylic acid): 44.06 mol % | 3-hydroxyalkanoate monomer content C10 (P. putida LS46 [2]; 2.5 mM salicylic acid): 52.03 mol % | 3-hydroxyalkanoate monomer content C12 (P. putida LS46 [2]; 2.5 mM salicylic acid): 0.93 mol % | CDW (P. putida LS46 [2]; 2.5 mM salicylic acid): 2.89 g/L | PHA content (P. putida LS46 [2]; 2.5 mM salicylic acid): 28.90 % CDW | 3-hydroxyalkanoate monomer content C6 (P. putida LS46 [2]; 5.0 mM salicylic acid): 2.46 mol % | 3-hydroxyalkanoate monomer content C8 (P. putida LS46 [2]; 5.0 mM salicylic acid): 42.49 mol % | 3-hydroxyalkanoate monomer content C10 (P. putida LS46 [2]; 5.0 mM salicylic acid): 53.36 mol % | 3-hydroxyalkanoate monomer content C12 (P. putida LS46 [2]; 5.0 mM salicylic acid): 0.66 mol % | CDW (P. putida LS46 [2]; 5.0 mM salicylic acid): 2.64 g/L | PHA content (P. putida LS46 [2]; 5.0 mM salicylic acid): 21.89 % CDW | 3-hydroxyalkanoate monomer content C6 (P. putida LS46 [3]): 3.97 mol % | 3-hydroxyalkanoate monomer content C8 (P. putida LS46 [3]): 46.30 mol % | PHA content (P. putida LS46 [3]): 26.07 % CDW | monomer composition of mcl-PHAs produced by P. aeruginosa (P. aeruginosa): altered the monomer composition
